Like-named read-outs stand apart in the source and are kept apart here.
How the values were obtained:
[1] = target: T1, ROCK I (Homo sapiens, UniProt Q13464); design: method as in PMID 22609784; conditions: lead discovered by high-throughput screening, previous article; read-out: IC50 against ROCK I; cited from earlier work
T1 construct: purchased Cyclex, Nagoya, Japan CY-1160

[2] = system: rat aortic rings; experiment: Vasorelaxant activity test, high-potassium model; conditions: rat aortic rings constricted with high K+ (60 mmol/L); a: mean N = 6; b: single determination; -- = No activity
Source text: (§1) Abnormalities in the Rho/ROCK signaling pathway are associated with various cardiovascular diseases, especially hypertension. The inhibition of the Rho/ROCK pathway can cause the vessels to relax. The norepinephrine (NE)- or potassium chloride (KCl)-induced model of the rat aortic ring can trigger sustained vessel contraction and is usually used to evaluate vasorelaxant activity. DL0805 has shown vasorelaxant activity. Therefore, the nine compounds with significant inhibition against ROCK I were further tested for their vasorelaxant activity in rat aortic rings in both the high-potassium and NE models (Table 3). […] The potent active compound 4b with excellent activity has been further evaluated, and further pharmacokinetic and safety evaluations are in progress.
(§2) Male Sprague-Dawley rats weighing 240–280 g (Vital River Laboratories, Beijing, China) were maintained in a 12-h light/dark cycle at 24 °C in a relative humidity of 60% room, and received food and water ad libitum. The animal care and handling were performed in accordance with the Guide for the Care and Use of Laboratory Animals published by the US National Institutes of Health and the Laboratories Institutional Animal Care and Use Committee of the Chinese Academy of Medical Science and Peking Union Medical College (ethic approval number: 00001012).
(§3) The vasorelaxant activity assay was performed as described previously. Briefly, the descending thoracic aorta was isolated after rats were euthanized by cervical dislocation. Then, the aorta was cut into ring segments (3–4 mm in length). The endothelial layer of the aorta was destroyed by gently rubbing the luminal surface with a moist cotton swab when necessary. Two stainless-steel triangles were inserted into the lumen of each ring. One triangle was fixed, and the other attached to a force transducer. Changes in isometric force were recorded on a BIOPAC polygraph (MP100WSW, Biopac Systems, Inc, Goleta, CA, USA). The rings were mounted in organ baths containing 10 mL Krebs-Henseleit (K-H) buffer with the following composition (mM): NaCl 120, KCl 4.8, MgSO4 1.4, KH2PO4 1.2, glucose 11.0, CaCl2 2.5, NaHCO3 25.0 and EDTA 0.01. The K-H buffer was continuously bubbled with 95% O2/5% CO2 at 37 °C. Rings were allowed to equilibrate for 60 min at a resting tension of 1.2 g with changes of buffer every 20 min.
(§4) After the equilibration period, the aortic rings were constricted with a high K^+ (60 mM) K-H solution to stimulate the tissue and to test its availability. Then, the rings were washed with normal K-H buffer to restore the basic tension of 1.2 g. The aortic rings were then stimulated with a high K^+ (60 mmol/L) K-H buffer ornorepinephrine (1 μM) to evaluate the vasorelaxant effects of the compounds. When the contraction reached the platform, compounds were added to the bath in batches at 5-min intervals to reach the accumulative concentrations of 1, 2, 5, 10, 25 and 50 μM. The tension of vessels was recorded and nonlinear regression was used to calculate the EC50 values.

[3] = system: rat aortic rings; experiment: Vasorelaxant activity test, NE model; conditions: rat aortic rings constricted with norepinephrine (1 μM); a: mean N = 6; b: single determination; -- = No activity
Source text: as §1, §2, §3, §4

[4] = target: T1, ROCK I; experiment: Rho kinase activity assay (Cyclex CY-1160 kit); format: biochemical
Procedure: Briefly, the compounds at 20 μM were pre-incubated in a system wherein ROCK I (0.02 ng/μL) phosphorylates the kinase substrate’s myosin-binding subunit (MBS) pre-absorbed onto the microplate in the presence of Mg^2+ and ATP. Then, the system was washed after incubation at 30 °C for 30 min. 100 μL of horseradish peroxidase-conjugated anti-AF20 antibody was added to the wells and then incubated for 30 min at room temperature. The reaction system was then incubated with the substrate tetra-methylbenzidine (TMB), which can be catalyzed from a colorless solution to a blue solution. The absorbance was measured at a wavelength of 450 nm on a microplate reader. The color reflects the relative level of ROCK I activity. The inhibitory rates of the compounds on ROCK I were obtained from OD 450 nm and the IC50 values were calculated by nonlinear regression.

T1 sequence (Q13464 whole entry, species assumed): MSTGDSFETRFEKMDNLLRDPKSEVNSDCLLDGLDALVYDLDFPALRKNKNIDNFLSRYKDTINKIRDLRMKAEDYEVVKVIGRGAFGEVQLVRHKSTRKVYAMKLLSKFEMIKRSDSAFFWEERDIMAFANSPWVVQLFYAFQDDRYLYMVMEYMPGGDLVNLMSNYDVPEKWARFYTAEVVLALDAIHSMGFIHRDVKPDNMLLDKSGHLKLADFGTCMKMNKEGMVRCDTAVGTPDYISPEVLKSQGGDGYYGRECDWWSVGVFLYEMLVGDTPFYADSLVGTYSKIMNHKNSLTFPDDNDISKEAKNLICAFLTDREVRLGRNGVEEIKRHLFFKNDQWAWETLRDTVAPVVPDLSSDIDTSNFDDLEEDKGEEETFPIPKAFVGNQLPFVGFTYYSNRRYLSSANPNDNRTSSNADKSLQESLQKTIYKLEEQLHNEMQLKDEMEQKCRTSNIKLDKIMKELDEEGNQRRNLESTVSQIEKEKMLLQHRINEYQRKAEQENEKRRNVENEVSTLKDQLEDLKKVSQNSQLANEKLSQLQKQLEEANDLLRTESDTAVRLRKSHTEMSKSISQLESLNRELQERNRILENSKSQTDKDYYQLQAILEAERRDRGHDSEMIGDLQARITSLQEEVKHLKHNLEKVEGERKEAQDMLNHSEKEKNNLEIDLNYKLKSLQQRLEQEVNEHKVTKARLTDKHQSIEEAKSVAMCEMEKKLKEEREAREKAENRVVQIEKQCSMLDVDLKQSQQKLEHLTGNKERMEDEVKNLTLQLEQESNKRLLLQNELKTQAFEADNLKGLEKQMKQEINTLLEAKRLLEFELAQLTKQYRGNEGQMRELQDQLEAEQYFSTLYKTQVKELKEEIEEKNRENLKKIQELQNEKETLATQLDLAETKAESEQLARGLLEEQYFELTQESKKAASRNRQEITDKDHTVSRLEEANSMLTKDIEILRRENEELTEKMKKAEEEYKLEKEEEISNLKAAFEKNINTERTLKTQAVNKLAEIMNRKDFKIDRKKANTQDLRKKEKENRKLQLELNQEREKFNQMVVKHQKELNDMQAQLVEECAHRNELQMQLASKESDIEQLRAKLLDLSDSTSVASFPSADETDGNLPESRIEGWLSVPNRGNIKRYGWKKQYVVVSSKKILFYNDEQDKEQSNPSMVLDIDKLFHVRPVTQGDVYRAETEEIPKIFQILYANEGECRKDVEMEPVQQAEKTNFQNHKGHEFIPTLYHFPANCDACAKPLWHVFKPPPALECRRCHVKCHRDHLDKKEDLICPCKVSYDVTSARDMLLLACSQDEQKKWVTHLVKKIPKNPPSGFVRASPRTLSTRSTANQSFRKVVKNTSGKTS

## N#Cc1n[nH]c2ccc([N+](=O)[O-])cc12 [DL0805, 5-Nitro-1H-indazole-3-carbonitrile, reference compound]
[1]
  IC50: 6.7 µM
[2]
  EC50: 9.44 µM
[3]
  EC50: 28.8 µM
[4]; a: means of multiple experiments (N = 4), errors within 30% of the mean, b: single determinations, read-out: IC50 against ROCK I
  IC50: 6.67 µM
[4]; compound concentration 20 μM, single determinations
  inhibition at 20 µM: 72.3%

From paper PMC6151428, “Discovery of Novel N-Substituted Prolinamido Indazoles as Potent Rho Kinase Inhibitors and Vasorelaxation Agents” (Molecules : A Journal of Synthetic Chemistry and Natural …, 2017)
